Laboratory results as given in patent US7238469B2, “Carbon monoxide improves outcomes in tissue and organ transplants and suppresses apoptosis” (priority 2001, dated 2007).
“And” between values parts separate entries of the source, which are not always exact repeats. Equal entries are not always repeated. Structures can show the parent of a compound that is named as a salt. Residues, ends and D or L forms follow the SMILES beside them.

Assays:
βTC3 cells = experiment: TNF-α mediated apoptosis of β-gal transfected βTC3 cells (percentage of viable cells); type: cell-based, murine; settings: for inhibition of TNF-α mediated apoptosis: TNF-α 24 hours, inhibitor added two hours before TNF-α (Z-DEVD-FMK 10 μM, IETD-CHO 1 μM)
Procedure: The murine insulinoma cell line βTC3 (DSMZ, Braunschweig, Germany) was cultured in Dulbecco's Modified Eagle's Medium (DMEM) (Life Technologies, Grand Island, N.Y., USA) supplemented with 2 mM L-glutamine, 100 U/ml penicillin G, 100 U/ml streptomycin and 10% Fetal Calf Serum (FCS) (Life Technologies) and incubated in humidified 5% CO2/95% air at 37° C. This murine β-cell line, derived from transgenic mice carrying a hybrid insulin-promoter simian virus 40 tumor antigen, is known to maintain the features of differentiated β-cells for about 50 passages in culture. […] Compared to other frequently used transformed β-cell lines such as RIN-m5F and HIT, levels of secreted insulin are closer to normal β-cells in the βTC3 cell line. Thus, these cells are useful for studying β-cell regulation and gene expression (D'Ambra et al., Endocrinology 726:2815–22, 1990).
βTC3 were seeded at 3×10^5 cells in 16 mm wells and transfected 15 to 20 hours later using Lipofectamine plus™ reagents (Life Technologies) according to the manufacturer's instructions. Total DNA was maintained constant using empty pcDNA3 vector. The percentage of viable cells was assessed by normalizing the percentage of viable cells of each DNA preparation to the number of control-transfected cells without the apoptotic stimulus (100% viability) (Soares et al., Nature Med. 4:1073–1077, 1998; Sato et al., J. Immunol. 166:4185–4194, 2001).
Murine recombinant TNF-α (R&D Systems) was dissolved in PBS with 1% bovine serum albumin and added to the culture medium (17.5 ng/ml=500 U) 24 hours after transfection. The caspase-3 inhibitor Z-DEVD-FMK and the caspase-8 inhibitor IETD-CHO (Calbiochem, San Diego, Calif.) were dissolved in dimethyl sulphoxide (DMSO, Sigma) and added to the culture medium (10 μM and 1 μM respectively) two hours before treatment with TNF-α. Tin protoporphyrin (SnPPIX) (Porphyrin Products, Logan, Utah) was dissolved (10 mM) in 100 mM NaOH and added 6 hours after transfection to the culture medium (50 μM). The guanylyl cyclase inhibitor 1H[1,2,4]oxadiazolo[4,3-α]quinoxalin-1 (ODQ; Calbiochem) was dissolved in DMSO and added to the culture medium (100 μM) 6 hours after transfection. The cGMP analogue 8-bromoguanosine-3′-5′-cyclic-monophosphate (8-Br-cGMP) (Sigma) was dissolved in water and added to the culture medium (10 μM) 30 minutes before induction of apoptosis. The protein kinase G inhibitor KT5823 (Calbiochem) was dissolved in DMSO and added to the culture medium (1.6 μM) 6 hours after transfection.
Cells and islets were exposed to 1% carbon monoxide in compressed air balanced with 5% CO2, as described elsewhere (see, e.g., Otterbein et al., Nature Med. 6:422–428, 2000). Islets were incubated in RPMI medium pre-saturated with carbon monoxide (4° C. overnight, 1% CO, 5% CO2) for two hours at 37° C. while treatment with 1% CO, 5% CO2 was continued.

2F–2B ECs = type: cell-based, murine
Procedure: The murine 2F–2B endothelial cell line (ATCC) was transiently transfected as described elsewhere (Soares et al., Nature Med. 4:1073, 1998; Brouard et al, J. Exp. Med. 192:1015, 2000). All experiments were conducted 24–48 h after transfection. é-galactosidase-transfected cells were detected as described elsewhere (Soares et al., Nature Med. 4:1073, 1998; Brouard et al., J. Exp. Med. 192:1015, 2000). Percentage of viable cells was assessed by evaluating the number of é-galactosidase-expressing cells that retained normal morphology as described elsewhere (Soares et al., Nature Med. 4:1073, 1998; Brouard et al., J. Exp. Med. 192:1015, 2000). The number of random fields counted was determined to have a minimum of 200 viable transfected cells per control well. The percentage of viable cells was normalized for each DNA preparation to the number of transfected cells counted in the absence of the apoptosis-inducing agent (100% viability). All experiments were performed at least three times in duplicate. Actinomycin D (Act. D; Sigma) was dissolved in PBS and added to the culture medium (10 îg/ml) 24 h after transfection. SnPPIX (Porphyrin Products) was dissolved (10 îM) in 100 mM NaOH and conserved at −20° C. until used. SNPPIX was added to the culture medium (50 îM) 6 h after transfection. Human recombinant TNF-α (R&D Systems, Minneapolis, Minn.) was dissolved in PBS, 1% BSA, and added to the culture medium (10–100 ng/ml) 24 h after transfection.
Cells were exposed to compressed air or varying concentration of CO (250 and 10,000 ppm), as described elsewhere (Otterbein et al., Nature Med. 6:422, 2000; and Brouard et al., J. Exp. Med. 192:1015, 2000).
BAECs and 2F–2B ECs were transiently transfected. All experiments were carried out 24–48 h after transfection. The percentage of viable cells was assessed by evaluating the number of β-galactosidase-expressing cells that retained normal morphology. The number of random fields counted was determined to have a minimum of 200 viable transfected cells per control well. The percentage of viable cells was normalized for each DNA preparation to the number of transfected cells counted in the absence of the apoptosis-inducing agent (100% viability). All experiments were performed at least three times in duplicate.
Actinomycin D (Act.D; Sigma-Aldrich) was dissolved in PBS and added to the culture medium 24 h after transfection. The Act.D concentration used corresponded to the optimal concentration necessary to sensitize ECs to TNF-α mediated apoptosis, e.g., 10 μg/ml for 2F–2B ECs and 0.1 μg/ml for BAECs. When indicated, EC apoptosis was induced by etoposide (200 μM, 8 h; Calbiochem-Novabiochem) or by serum deprivation (0.1% FCS for 24 h). The iron chelator deferoxamine mesylate (DFO; Sigma-Aldrich) was dissolved in water and added to culture medium (1–100 μM) 1 h before the induction of apoptosis. Hemoglobin (Hb; Sigma-Aldrich) was dissolved (1 mM) in PBS, 10 mM Na2S2O4, dialyzed against PBS (2 h, 4° C., 1:800 dilution), and added to the culture medium (1–100 μM) 6 h after transfection. The guanylcyclase inhibitor 1H(1,2,4)oxadiazolo(4,3)quinoxalin-1 (ODQ; Calbiochem-Novabiochem) was dissolved in DMSO (Sigma-Aldrich) and added to the culture medium (10–100 μM) 6 h after transfection. Iron protoporphyrin ([FePP]/heme), cobalt protoporphyrin (CoPPIX), and tin protoporphyrin (SnPPIX; all from Porphyrin Products, Inc.) were dissolved (10 mM) in 100 mM NaOH and held at −20° C. until use. Metalloporphyrins were added to the culture medium (50 μM) 6 h after transfection. The cGMP analogue 8-bromo-cGMP sodium salt (8-Br-cGMP; Sigma-Aldrich) was dissolved in water and added to the culture medium (10–100 µM) 30 min before the induction of apoptosis. Human recombinant TNF- (R&D Systems) was dissolved in PBS and 1% BSA, and added to the culture medium (10–100 ng/ml) 24 h after transfection.
Cells were exposed to compressed air from a compressed air tank or varying concentrations of CO (250 and 10,000 ppm).

islet cell grafts = experiment: Islet graft survival after induction of HO-1 by CoPP in donors and recipients; type: in vivo, mouse; settings: 350–400 islets; for Rejection day: individual recipients
Procedure: Whether induction of HO-1 in donors and recipients would protect islet cell grafts was investigated. The following procedures were utilized to generate the data illustrated in Table 1, below. A mouse model was utilized for the experiments. Donors of islet cells were treated with cobalt protoporphyrin (CoPP) (20 mg/kg) once per day before islet cell isolation. Recipients of islet cell grafts were treated with CoPP (20 mg/kg) once per day on days 1, 3, 5, 7 or with CoPP (10 mg/kg) once per day on days 1, 3, 5, 7, 9, 11, 13, 15, and 17. Treatment with CoPP induces expression of heme oxygenase-1 (HO-1).
Listed under “rejection day” are the days to which islets survived. For instance, “>51×2”, means that islets in 2 recipients were still surviving after 51 days. The mean date of rejection is shown in the fourth column.

[1] = system: rat platelets overlaid on mouse 2F–2B endothelial cells; experiment: Platelet aggregation assay, platelets overlaid on pretreated endothelial cells; type: cell-based; settings: endothelial cells pretreated with protoporphyrin 50 μM; ADP 2 μM
Procedure: Mouse 2F–2B endothelial cells were cultured on 0.2% gelatin (Sigma) coated six-well plates in 88% DMEM (Life Technologies), 10% FCS (FCS), 100 U/ml penicillin, and 100 îg/ml streptomycin (Life Technologies). Confluent endothelial cells either were left untreated or were treated with the HO-inducing agent CoPPIX (50 îM; 18 h), the HO inhibitor SnPPIX (50 îM, 18 h), or both CoPPIX (50 îM, 15 h) and SnPPIX (50 îM, 3 h). Platelet-rich plasma was obtained by centrifugation (290-g, 12 min, 19° C.) of normal rat […] in 3.8% sodium citrate. Rat platelets (3–10^8 cells ml) were resuspended in HT buffer (8.9 mM NaHCO3, 0.8 mM KH2PO, 5.6 mM dextrose, 2.8 mM KCl solution, 0.8 mM MgCl2, 129 mM NaCl, 10 mM HEPES). Platelets were overlaid (5 min; 37° C.) on mouse endothelial cells, and platelet aggregation assays were conducted as described before (Kaczmarek et al, J. Biol. Chem. 271:33116, 1996) by using an aggregometer (Chrono-Log, Harestown, Pa.) and ADP (0.5–4 μM) as an agonist.

HO-1 = experiment: Western blot of HO-1 expression in cultured endothelial cells; type: cell-based, mouse; settings: data not shown
Procedure: Endothelial cells were washed in PBS (pH 7.2), harvested by scraping, and lysed in Laemmli buffer. Electrophoresis was conducted under denaturing conditions with 10% polyacrylamide gels. Proteins were transferred onto a polyvinyldifluoridine membrane (immobilon P; Millipore, Bedford, Mass.) by electroblotting and detected with rabbit polyclonal Abs directed against human HO-1 or HO-2 (StressGen, Victoria, Canada) or é-tubulin (Boehringer Mannheim, Mannheim, Germany). Proteins were visualized by using HRP-conjugated donkey anti-rabbit IgG or goat anti-mouse IgG (Pierce) and the ECL assay (Amersham Life Science, Arlington Heights, Ill.) according to manufacturer's instructions.

COC(=O)[C@@]1(OC)C[C@H]2O[C@]1(C)n1c3ccccc3c3c4c(c5c6ccccc6n2c5c31)C(=O)N(C)C4 [KT5823]
effect on the anti-apoptotic effect of exogenous CO (βTC3 cells; TNF-α, 1% CO, ODQ 100 μM, KT5823 1.6 μM): suppressed the anti-apoptotic effect of exogenous carbon monoxide

CC(=O)N(O)CCCCCNC(=O)CCC(=O)N(O)CCCCCNC(=O)CCC(=O)N(O)CCCCCN [DFO, deferoxamine mesylate]
effect on EC apoptosis when HO-1 activity was inhibited by SnPPIX or the action of CO suppressed by Hb (2F–2B ECs; DFO): still able to prevent EC apoptosis | effect on EC apoptosis under inhibition of HO activity by SnPPIX (2F–2B ECs; DFO 100 μM alone): suppressed EC apoptosis, but to a lesser extent than HO-1 | effect on EC apoptosis induced by TNF-α plus Act.D (2F–2B ECs; DFO 1–100 μM): suppressed

COC(=O)CC[C@H](NC(=O)[C@H](CC(=O)OC)NC(=O)OCc1ccccc1)C(=O)N[C@H](C(=O)N[C@@H](CC(=O)OC)C(=O)CF)C(C)C [Z-DEVD-FMK]
inhibition of TNF-α mediated apoptosis (βTC3 cells): 53%

CC[C@H](C)[C@H](NC(C)=O)C(=O)N[C@@H](CCC(=O)O)C(=O)N[C@H](C(=O)N[C@H](C=O)CC(=O)O)[C@@H](C)O [IETD-CHO] (Ac-IETD-aldehyde)
inhibition of TNF-α mediated apoptosis (βTC3 cells): 96%

C=CC1=C(C)c2cc3[n-]c(cc4nc(cc5[n-]c(cc1n2)c(C)c5CCC(=O)[O-])C(CCC(=O)[O-])=C4C)c(C)c3C=C.[Co+2].[H+].[H+] [CoPP, cobalt protoporphyrin]
Rejection day Mean ± SD (islet cell grafts; CoPP 10 mg/kg × 10): 40.5 ± 12.12 days | Rejection/Total (islet cell grafts; CoPP 10 mg/kg × 10): 2/4 | Rejection day (islet cell grafts; CoPP 10 mg/kg × 10): > 51 days | Rejection day Mean ± SD (islet cell grafts; CoPP 20 mg/kg × 5): 44.85 ± 17.81 days | Rejection/Total (islet cell grafts; CoPP 20 mg/kg × 5): 4/7 | Rejection day (islet cell grafts; CoPP 20 mg/kg × 5): >58 × 2, day and >67 × 1 day | platelet aggregation on stimulation by ADP [1]: platelet aggregation was significantly inhibited | expression of HO-1 in cultured endothelial cells (HO-1): up-regulated the expression of HO-1 | effect of protoporphyrin on the antiapoptotic effect of HO-1 (2F–2B ECs; HO-1 transfected ECs, protoporphyrin 50 μM): did not suppress the antiapoptotic effect of HO-1 or that of bcl-2

C[S+]([O-])c1ccc(-c2nc(-c3ccncc3)c(-c3ccc(F)cc3)[nH]2)cc1 (stereo not shown) [SB203580]
effect on the antiapoptotic action of HO-1 (2F–2B ECs; SB203580 10–20 μM, dose dependent): antiapoptotic action of HO-1 is suppressed
